In publication PMC4865297, “Macromolecular Crystallography and Structural Biology Databases at NIST” (Journal of Research of the National Institute of Standards …, 2001):

Key:
[1] = target: T1, catabolite gene activator protein (CAP) (Escherichia coli, UniProt P0ACJ8, A145T); test: X-ray crystal structure, soak; format: binding; settings: crystals grown with cAMP soaked in 10 mM adenosine; bound in one subunit; text also prints the variant as Thr144Ala
T1 construct: gene crp; homodimer
T1 sequence (P0ACJ8 2-210 A145T): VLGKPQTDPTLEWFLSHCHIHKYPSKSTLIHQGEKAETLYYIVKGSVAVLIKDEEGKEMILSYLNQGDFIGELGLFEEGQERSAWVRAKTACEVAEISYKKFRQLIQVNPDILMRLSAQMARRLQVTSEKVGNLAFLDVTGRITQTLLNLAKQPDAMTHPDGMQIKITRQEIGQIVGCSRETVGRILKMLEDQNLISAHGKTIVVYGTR

chorismate lyase = target: T2, chorismate lyase (Escherichia coli, UniProt P26602, C15S/C82S); test: X-ray crystal structure; format: binding; settings: both cysteines changed to serine; product complex
T2 construct: gene ubiC; monomer, 164 residues
T2 sequence (P26602 2-165 C15S/C82S): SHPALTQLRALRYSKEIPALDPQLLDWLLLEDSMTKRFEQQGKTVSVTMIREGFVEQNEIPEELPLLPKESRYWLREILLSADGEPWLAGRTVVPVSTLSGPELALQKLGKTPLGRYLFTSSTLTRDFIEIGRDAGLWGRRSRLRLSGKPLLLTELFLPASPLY

SMILES | X-ray crystal structure, soak [1] | X-ray crystal structure (chorismate lyase)
Nc1ncnc2c1ncn2[C@@H]1O[C@H](CO)[C@@H](O)[C@H]1O [adenosine] | Adenosine was preferentially substituted for cAMP in only one of the two CAP subunits | –
O=C(O)c1ccc(O)cc1 [4-hydroxy benzoate] | – | the active double Cys-to-Ser variant complexed with product were determined
